“Also recorded” adds a separate entry of the source.
Columns and labels:
Assay type in all cases: in vivo, mouse
cirrhotic mice = experiment: Extent of radiation induced liver disease (RILD) by SPECT-CT in cirrhotic mice (Example 5); settings: 50 Gy HIR, RWJ-800088 with LSEC transplants
Experimental: Male C57BL/6 DPPIV knockout male mice (10-14 weeks) were injected intraperitoneally with carbon tetrachloride (CCl4) twice a week for a minimum of 12 weeks until a maximum of when 5 out of 30 mice perish from the CCl4 injection. Immediately after, the animals were randomly distributed into the experimental groups.
Image-guided external beam irradiation was performed using a small animal radiation research platform (SARRP, Xstrahl Inc., Suwanee, Ga.). Mice were given gastrografin contrast through gavage to improve visualization of the gastrointestinal (GI) tract. […]
The methods were identical to Experiment 4 as described above with the exception that the CCl4 dose was increased to 20% in olive oil over 12 weeks. To evaluate the effect of RWJ-800088+Liver Sinusoidal Endothelial Cells (LSEC), RWJ-800088+Plerixafor (a selective inhibitor of CXCR4 administered pre- and post-irradiation) on radiation induced liver disease as measured by SPECT-CT in cirrhotic mice after single hepatic irradiation (HIR) at 50 Gy. […]
The dosing solution of RWJ-800088 was prepared as described in Experiment 4. […] The number of viral particles and infectious units' ratio was determined by infecting 293 cells at various dilutions, followed by immunocytochemical staining for adenoviral hexons. The infectious titer was calculated from the number of plaques formed per 1,000 viral particles. […]

Hemophilia A mice = experiment: Survival after tail bleed challenge (Example 6); settings: HIR+LSECs+drug, control Hemophilia A mice 100% died within 5 days
Source text: (§1) 8-16-week-old male C57/BL6 mice, 8-16-week-old female and male B6129SF2/J mice (donor for isolating LSECs) and 8-16-week-old female and male Hemophilia mice (F^8tm1Kaz) mice were used in this study. Mice were housed in groups of up to 5 in micro-isolator cages on stainless steel racks (Allentown, Inc., Allentown, N.J.) with a total floor space of 500 cm^2. The cages utilized an external water bottle and a dual feeder rack (Fisher Scientific, Hampton, N.H.). These cages were stored in the storage rack which provided temperature, humidity, and ventilation control to each individual cage (Allentown, Inc.). Bed-o'Cobs ⅛″ (Fisher Scientific) were used as bedding material in each cage.
(§2) The methods were identical to Experiment 5 as described above; including the preparation of test articles (solutions of RWJ-800088 and AdHGF), isolation and transplant of LSECs, and Hepatic irradiation.
The livers of mice were irradiated at 50 Gy by using an X-ray irradiator (SARRP). At 24 hours post-irradiation, the LSECs (1×10^6 cells/mouse) were injected to the mouse through tail vein. An incision was made in the tail from each mouse at day 60 after hepatic irradiation (HIR) and subjected to the bleeding test.
RWJ-800088 (300 μg/kg) was administrated subcutaneously at 10 min after LSEC transplantation. AdHGF at 1×10^9 PFU/mouse was administrated intraperitoneally at 24 hours after LSEC transplantation. […]

factor VIII (FVIII) = experiment: Factor VIII production in plasma and liver of Hemophilia A mice (ELISA, Western blot, mRNA) (Example 6)
Source text: as §1, §2
The livers of mice were irradiated at 50 Gy by using an X-ray irradiator (SARRP). At 24 hours post-irradiation, the LSECs (1×10^6 cells/mouse) were injected to the mouse through tail vein. […]
A tail bleeding test was performed in which the extent of bleeding and time to clotting over the course of 30 minutes was evaluated. FVIII protein levels were evaluated by Western blot and mRNA profiling in the blood and liver to evaluate the extent to which there was engraftment of functioning LSECs that produce FVIII. […]

In the case of “methoxypolyethyleneglycol20000-propionyl-L-Isoleucyl-L-Glutamyl-Glycyl-L-Prolyl-L-Threonyl-L-Leucyl-L-Arginyl-L-Glutaminyl-L-2-Naphthylalanyl-L-Leucyl-L-Alanyl-L-Alanyl-L-Arginyl-Sarcosyl-Ne-(methoxypolyethyleneglycol20000-propionyl-L-Isoleucyl-L-Glutamyl-Glycyl-L-Prolyl-L-Threonyl-L-Leucyl-L-Arginyl-L-Glutaminyl-L-2-Naphthyl alanyl-L-Leucyl-L-Alanyl-L-Alanyl-L-Arginyl-Sarcosyl-)-Lysinamide [RWJ-800088]”, the “protection against RILD (SPECT-CT)” value (cirrhotic mice) is reported as “trend toward protection against RILD; also recorded: protected against RILD”, the “survival 30 days post tail bleed challenge” value (Hemophilia A mice) is reported as 100% and the “levels of Factor VIII mRNA and activated protein in plasma and liver” value (factor VIII (FVIII); HIR+LSECs+RWJ-800088 treated hemophilia mice) is reported as “increased levels”. For the same substance, the “expression of factor VIII (FVIII) by ELISA in plasma and liver compared to non-treated Haemophilia A mice” value (factor VIII (FVIII); HIR+LSECs+drug) was “prolonged expression”.

Reference: US20200237871A1, “METHODS FOR MITIGATING LIVER INJURY AND PROMOTING LIVER HYPERTROPHY, REGENERATION AND CELL ENGRAFTMENT IN CONJUNCTION WITH RADIATION AND/OR RADIOMIMETIC TREATMENTS” (Janssen Pharmaceutica NV, priority 2019, published 2020)
